The values below are quoted from earlier work in patent US20200138985A1, “KIT FOR LABELING A PROSTATE-SPECIFIC MEMBRANE ANTIGEN LIGAND WITH A RADIOACTIVE ISOTOPE” (Isotopia Molecular Imaging Ltd., priority 2015, published 2020).

As a reminder, the Kd is a measure of binding affinity in units of concentration.

For this data set, the target named is T1, PSMA (Homo sapiens, UniProt Q04609).
T1 construct: In cell research with PSMA-positive androgen-insensitive LNCaP-C4-2 cells; endogenous in cells; host or cells: LNCaP-C4-2 cells
T1 sequence (Q04609 whole entry): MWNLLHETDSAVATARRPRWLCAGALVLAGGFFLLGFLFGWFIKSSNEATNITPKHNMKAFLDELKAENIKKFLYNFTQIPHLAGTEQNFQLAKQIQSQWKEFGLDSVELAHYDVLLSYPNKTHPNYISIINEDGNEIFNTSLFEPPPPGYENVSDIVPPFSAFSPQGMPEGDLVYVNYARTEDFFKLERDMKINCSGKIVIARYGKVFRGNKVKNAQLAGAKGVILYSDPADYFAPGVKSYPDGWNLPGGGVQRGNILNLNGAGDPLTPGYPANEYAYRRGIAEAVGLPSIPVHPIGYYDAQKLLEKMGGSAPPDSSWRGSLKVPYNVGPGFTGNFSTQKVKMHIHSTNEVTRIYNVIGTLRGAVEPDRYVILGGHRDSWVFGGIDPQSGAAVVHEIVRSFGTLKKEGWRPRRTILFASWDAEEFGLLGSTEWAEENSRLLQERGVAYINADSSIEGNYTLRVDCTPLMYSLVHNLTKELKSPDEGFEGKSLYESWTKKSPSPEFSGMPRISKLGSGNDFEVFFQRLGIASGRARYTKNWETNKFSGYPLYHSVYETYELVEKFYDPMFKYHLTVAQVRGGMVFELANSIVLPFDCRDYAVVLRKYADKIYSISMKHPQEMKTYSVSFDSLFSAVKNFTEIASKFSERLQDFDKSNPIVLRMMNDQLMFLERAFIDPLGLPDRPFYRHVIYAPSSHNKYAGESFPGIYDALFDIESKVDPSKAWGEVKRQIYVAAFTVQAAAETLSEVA
As to conditions: PSMA-positive androgen-insensitive LNCaP-C4-2 cells.

As for “(5S,8S,22S,26S)-1-amino-5,8-dibenzyl-4,7,10,19,24-pentaoxo-3,6,9,18,23,25-hexaazaoctacosane-22,26,28-tricarboxylic acid (DUPA-Pep), conjugated with 1,4,7,10-tetraazacyclododecane-N,N,N′,N″-tetraacetic acid (DOTA)”, the Kd was 21.6 ± 0.4 nM.

For the substance “cyclohexyl-diethylene triamine pentaacetic acid-(5S,8S,22S,26S)-1-amino-5,8-dibenzyl-4,7,10,19,24-pentaoxo-3,6,9,18,23,25-hexaazaoctacosane-22,26,28- tricarboxylic acid [CHX-A″-DTPA-DUPA-Pep]”, the Kd is at most 14.7 nM.
